Source: article PMC12467535 (Biomedicines, 2025)
Like-named read-outs stand apart in the source and are kept apart here. No end group written: not given here.

Experiments:
[1] = minipig, in vivo
Experimental: (§2) Prior to the IVT injection, a combination of 100 mg Telazol, 50 mg ketamine, and 50 mg xylazine per mL of solution was administered via intramuscular injection at 0.03–0.06 mL/kg. For two animals, dexmedetomidine (0.02 or 0.03 mg/kg) was administered as a supplementary anesthetic via intramuscular injection. Proparacaine was then administered to eye, followed by tropicamide. The area surrounding the eye was swabbed with an ophthalmic Betadine solution.
(§3) For both studies, animals were euthanized at the indicated time points. Eyes were enucleated, snap frozen in liquid nitrogen, and stored frozen until dissection for collection of vitreous, retina, and RPE/choroid for bioanalysis. […] For statistical determination, all values that were below the lower limit of quantification (LLOQ) were considered zero. Pharmacokinetic analysis was performed from the composite concentration versus time data generated for ocular tissue samples through Day 84 using Phoenix WinNonlin (version 8.5.2.4) software.

in vivo [2] = details: Dutch-belted, rabbit
Source text: (§4) Prior to injection, each eye was moistened with an ophthalmic Betadine solution, which was then washed out of the eyes with sterile saline. Then, 0.5% proparacaine was applied to the ocular surface prior to the injection.
as §3

[3] = human, in vivo; cited from earlier work
in vivo [4] = details: Göttingen, minipig
Experimental: as §2, §3

[5] = rabbit, in vivo
Source text: as §4, §3

[6] = minipig, in vivo; remark: listed apart in the source
Experimental: as §2, §3

GA lesion growth = tested on: GA lesion growth; parameters: method as in PMID 37696275, PMID 37865470; details: patients with geographic atrophy, after one year of treatment, relative to sham; range given for either agent; cited from earlier work
[7] = tested on: IBA1+ inflammatory cells in the retina; test: IBA1+ cell count in retinal flatmounts of CS/HFD apoB100 mice; assay type: in vivo; details: chronic CS/HFD, two IVT injections, p < 0.000001
Experimental: (§1) At 8 weeks of age, male and female mice were placed in a smoking chamber for 5 h/day, 5 days/week for 6 months following our published protocol.
For retinal and RPE flatmount immunofluorescence confocal microscopy, mice were euthanized and eyes enucleated (7 eyes/treatment group) to be processed for staining for IBA1 (microglia/monocyte marker) and ZO-1 (RPE morphology). The anterior segments were removed, and the retina was carefully separated from the RPE/choroid complex. Tissues were fixed in 2% paraformaldehyde in Tris-buffered saline (TBS) at 4 °C overnight. Retina flatmounts were processed with TBS/1% bovine serum albumin (BSA) and 5% donkey serum overnight at 4 °C. The flatmounts were then incubated with goat polyclonal anti-AIF-1/IBA1 antibody (1:50; Novus biologicals, Centennial, CO, USA) for 48 h at 4 °C, washed, and incubated with donkey anti-goat Cy3 secondary antibody (Abcam, Cambridge, MA, USA) overnight at 4 °C [27]. […] For retinal quadrants, microglia/monocytes/macrophages, defined by IBA1-immunolabeled cell bodies, were counted in five 20 × power fields per flatmount. For RPE/choroid quadrants, each image was used to measure the RPE cell aspect ratio and the average size per cell using ImageJ after setting a threshold as indicated by the software At least 15 cells were measured/experimental group, with n = 5 animals/group, using our previously published protocol.

[8] = tested on: retinal pigment epithelium (RPE); test: Delayed sodium iodate challenge rabbit model, RPE lesion area by fluorescein angiography; assay type: in vivo, Dutch-belted rabbit; details: for protection against sodium iodate-induced lesion (lesion size): no statistically significant difference between the two doses
Experimental: A 20 mg/mL stock solution of sodium iodate (NaIO3, Sigma Aldrich, St. Louis, MO, USA, Cat#54007) was prepared in sterile 0.9% injectable saline (Cytiva, Marlborough, MA, USA, Z1376), aliquoted into single-use vials, and stored at −20 °C until use. On the day of dosing, aliquots were thawed at room temperature and used immediately. For NaIO3 administration, rabbits were weighed and anesthetized with 2–5% isoflurane (Dechra, Norwich, United Kingdom, 17033-094-25) delivered in medical-grade oxygen at a flow rate of 1.0 to 1.5 L/min via chamber until sedated, then moved to facemask for the injection procedure. The left ear was shaved and disinfected with […] prior to intravenous injection. An indwelling catheter was inserted into the marginal ear vein and flushed with sterile 0.9% injectable saline to ensure patency. Sodium iodate was administered intravenously at a dose of 18 mg/kg body weight, followed by a 0.3 mL saline flush. […] Ten animals were used in each treatment group and 6 animals served as the naïve control group.
Fluorescein angiography was performed following topical anesthesia of the rabbit eyes with proparacaine hydrochloride 0.5% (Akorn, 24208-730-06) and pharmacologic dilation with tropicamide (Akorn, 17478-102-12) and phenylephrine (Akorn, 17478-206-12). The rabbits were anesthetized with isoflurane and the ear was prepared as stated above. A 50 µL bolus of 10% sodium fluorescein (Akorn, 59399-001-04) was injected into the marginal ear vein and allowed to circulate for at least 2 min prior to imaging. Fundus images were captured (Spectralis, Heidelberg Engineering) to document and quantify the extent of visible choroidal and RPE degeneration in both eyes. The area of RPE depigmentation was quantified using ImageJ software (version 1.51j8). In certain cases where the damage extended well into the periphery it was not possible to image the entire edge of the affected area, and these cases were labeled “too large to grade” and were excluded from the final analysis.
With a favorable pharmacokinetic profile, we next evaluated the durability of ONL1204 protection. […] The dose of the systemic sodium iodate had been selected based on a titration that identified a level of systemic sodium iodate that led to localized and quantifiable damage to the rabbit RPE. This damage was assessed one day after sodium iodate administration by quantifying the depigmented lesion area, defined as regions of visible choroid (“window defect”) on fluorescein angiography (Figure 3A,B).

[9] = tested on: retinal pigment epithelium (RPE); test: Chronic CS/HFD apoB100 mouse model of dry AMD, RPE morphology on ZO-1 flatmounts; assay type: in vivo; details: apoB100 mice, 6 months CS/HFD, two IVT injections 6 weeks apart; p < 0.05
Source text: For the mouse study, an equal number of male and female apolipoproteinB100 (apoB100) mice on a C57/S129 background were used. These animals carry a mutation in the editing gene apobec1, resulting in the predominant production of apoB100 in these mice, contrasting to the majority of mice that predominantly produce apoB48 [24]. For all mice strains, the rd8 mutation was bred out. Mice were fed a standard diet until they were put in the smoking chamber and then were fed a high-fat diet (HFD) consisting of 60% fat, 20% protein, and 20% carbohydrate (Research Diets, Inc., New Brunswick, NJ, USA). The study was approved by the Johns Hopkins IACUC. […]
For retinal and RPE flatmount immunofluorescence confocal microscopy, mice were euthanized and eyes enucleated (7 eyes/treatment group) to be processed for staining for IBA1 (microglia/monocyte marker) and ZO-1 (RPE morphology). […] For retinal quadrants, microglia/monocytes/macrophages, defined by IBA1-immunolabeled cell bodies, were counted in five 20 × power fields per flatmount. For RPE/choroid quadrants, each image was used to measure the RPE cell aspect ratio and the average size per cell using ImageJ after setting a threshold as indicated by the software At least 15 cells were measured/experimental group, with n = 5 animals/group, using our previously published protocol.

caspase-8 = test: Caspase-8 activity assay in RPE lysates of CS/HFD apoB100 mice; assay type: in vivo; details: chronic CS/HFD, two IVT injections, p < 0.05
Experimental: as §1
After the retina and RPE/choroid were harvested, protein was extracted using RIPA Buffer (Sigma-Aldrich, St Louis, MO, USA) with Proteinase inhibitor and phosphatase inhibitor. Nine eyes per treatment group were used in this assay, and each sample included 75 μg of protein to standardize the amount of tissue with the Luminescent Caspase-Glow 8 assay kit (Promega, Madison, WI, USA) used according to manufacturer’s protocol. […]

[10] = 10 ug/eye, Average concentration of ONL1204 in RPE/choroid
[11] = 10 ug/eye, Average concentration of ONL1204 in retina
[12] = 50 ug/eye, Average concentration of ONL1204 in RPE/choroid
[13] = 50 ug/eye, Average concentration of ONL1204 in retina
[14] = 100 ug/eye, Average concentration of ONL1204 in RPE/choroid
[15] = 100 ug/eye, Average concentration of ONL1204 in retina
[16] = 200 ug/eye, Average concentration of ONL1204 in RPE/choroid
[17] = 200 ug/eye, Average concentration of ONL1204 in retina
[18] = 300 ug/eye, Average concentration of ONL1204 in RPE/choroid
[19] = 300 ug/eye, Average concentration of ONL1204 in retina

Substance HHIYLGAVNYIY-NH2 [ONL1204] has a half-life ([1]; half-life calculated from the vitreous humor data) of 112 days, a half-life ([1]; vitreous humor half-life) of over 100 days and a tissue level at time at 24 h (in vivo [2]; [10]) of 5.45 ng/g. The tissue level at time at 672 h (in vivo [2]; [10]) was 10.5 ng/g, the tissue level at time at 1344 h (in vivo [2]; [10]) was 144 ng/g and the tissue level at time at 1992 h (in vivo [2]; [10]) was 213 ± 207 ng/g. For the same substance, the tissue level at time at 24 h (in vivo [2]; [11]) was 11.2 ± 8.4 ng/g, the tissue level at time at 672 h (in vivo [2]; [11]) was 51 ± 97.9 ng/g and the tissue level at time at 1344 h (in vivo [2]; [11]) was 14.3 ± 15.1 ng/g. For the same substance, the tissue level at time at 24 h (in vivo [2]; [12]) was 58 ± 79.8 ng/g, the tissue level at time at 672 h (in vivo [2]; [12]) was 92.4 ng/g and the tissue level at time at 1344 h (in vivo [2]; [12]) was 61.8 ng/g. For the same substance, the tissue level at time at 1992 h (in vivo [2]; [12]) was 209 ± 251 ng/g, the tissue level at time at 24 h (in vivo [2]; [13]) was 75.6 ± 144 ng/g and the tissue level at time at 672 h (in vivo [2]; [13]) was 27 ± 36.6 ng/g. For the same substance, the tissue level at time at 1344 h (in vivo [2]; [13]) was 37.8 ± 48.4 ng/g, the tissue level at time at 1992 h (in vivo [2]; [13]) was 201 ± 268 ng/g and the tissue level at time at 24 h (in vivo [2]; [14]) was 174 ± 149 ng/g. It also gave a tissue level at time at 672 h (in vivo [2]; [14]) of 40.6 ng/g, a tissue level at time at 1344 h (in vivo [2]; [14]) of 36.2 ± 41 ng/g and a tissue level at time at 24 h (in vivo [2]; [15]) of 183 ± 346 ng/g. The tissue level at time at 672 h (in vivo [2]; [15]) was 42.3 ± 72.1 ng/g, the tissue level at time at 1344 h (in vivo [2]; [15]) was 22.7 ± 27.9 ng/g and the tissue level at time at 1992 h (in vivo [2]; [15]) was 86.1 ± 103 ng/g. For the same substance, the stability in plasma was “rapidly broken down by peptidases”, the “safety in Phase 1 clinical trial” value [3] was “safe” and the tissue level at time at 144 h (in vivo [4]; [16]) was 189 ± 160 ng/g. For the same substance, the tissue level at time at 672 h (in vivo [4]; [16]) was 66.5 ± 87.8 ng/g, the tissue level at time at 2112 h (in vivo [4]; [16]) was 38.2 ± 21.7 ng/g and the tissue level at time at 144 h (in vivo [4]; [17]) was 17.8 ± 27.3 ng/g. For the same substance, the tissue level at time at 672 h (in vivo [4]; [17]) was 2.05 ng/g, the tissue level at time at 144 h (in vivo [4]; [18]) was 101 ± 91.4 ng/g and the tissue level at time at 672 h (in vivo [4]; [18]) was 82.4 ± 34.5 ng/g. For the same substance, the tissue level at time at 2112 h (in vivo [4]; [18]) was 29.8 ng/g, the tissue level at time at 144 h (in vivo [4]; [19]) was 7.2 ± 6.37 ng/g and the tissue level at time at 672 h (in vivo [4]; [19]) was 23.8 ± 16.4 ng/g. For the same substance, the half-life ([5]; 10 ug, calculated vitreous half-life) was 147 days, the half-life ([5]; 50 ug, calculated vitreous half-life) was 116 days and the half-life ([5]; 100 ug, calculated vitreous half-life) was 124 days. For the same substance, the half-life ([5]; vitreous humor half-life) was over 100 days and the “half-life calculated from the vitreous humor data” value [6] was 117.18 days.

In the case of pegcetacoplan, the “reduction of the rate of GA lesion growth” value (GA lesion growth) is given as 14–26%.

For “HHIYLGAVNYIY-NH2 (C-terminus assumed) [ONL1204]”, the “IBA1+ inflammatory cell infiltration in the retina vs vehicle” value [7] was “decreased”, the “protection against sodium iodate-induced lesion (lesion size)” value ([8]; single IVT 25 µg on Day 0, sodium iodate 18 mg/kg i.v. on Day 4) was “comparable levels of protection” and the “protection against sodium iodate-induced lesion (lesion size)” value ([8]; single IVT 100 µg on Day 0, sodium iodate 18 mg/kg i.v. on Day 4) was “comparable levels of protection”. The “lesion area vs vehicle-treated controls and 25 µg group” value ([8]; single IVT 100 µg on Day 0, sodium iodate on Day 14) was “significantly smaller lesion areas”, the “lesion area vs vehicle-treated controls and 25 µg group” value ([8]; single IVT 100 µg on Day 0, sodium iodate on Day 28) was “significantly smaller lesion areas” and the “posterior RPE cell area vs vehicle” value [9] was “significantly lower than the control”. The “Caspase-8 activity in whole RPE lysates vs vehicle” value (caspase-8) was “significantly reduced”.

For avacincaptad pegol, the “reduction of the rate of GA lesion growth” value (GA lesion growth) is given as 14–26%.
